Source: ChEMBL document CHEMBL4376819, “The Rise of Molecules Able To Regenerate the Central Nervous System” (J Med Chem, 2020)

Experiments:
[1] = Half life in mouse plasma at 10 umol/L measured up to 4 hrs by mass spectrometry; assay type: ADME, cell-free
[2] = Induction of neurite growth in rat hippocampal neurons incubated for 48 hrs by high content analysis; assay type: functional, cell-based; conditions: Hippocampal neurone
[3] = Induction of rat DRG neuron growth assessed as increase in total neurite length at 1 uM incubated for 24 hrs by […] staining based assay relative to control; assay type: functional
Rattus norvegicus = experiment: Induction of optic nerve axon regeneration in Sprague-Dawley rat model of optic nerve crush injury assessed as increase in average length of the longest regenerating axons at 100 uM administered intravitreally on day 3,7 and 10 post injury and measured on day 13 post injury by Alexa Fluor 488/CTB-488 staining based confocal microscopic analysis relative to control; assay type: functional
[4] = Induction of CSPG-treated C57BL/6J mouse DRG neuron growth at 25 uM incubated for 24 hrs by Alexa Fluor 488 staining based assay relative to control; assay type: functional
[5] = Induction of CSPG-treated human induced sensory neuron growth at 2 uM for 24 hrs by immunostaining method relative to control; assay type: functional

**Q.** For `COc1ccc(O)c(C(=O)c2ccc(C(=O)O[C@@H]3CCCNC[C@H]3NC(=O)c3ccncc3)cc2)c1F`, which half-life at 10 µM [1] is on record?
**A.** The half-life at 10 µM was under 1 min.

**Q.** For `O=S(=O)(c1cccc2c(I)cccc12)N1CCCNCC1`, which EC50 [2] is on record?
**A.** The EC50 was 74 nM.

**Q.** What does the source list for `Cc1ccc(-c2nc(NCCOCCOCCN)nc(N3CCN(c4ccccn4)CC3)n2)cc1`?
**A.** Activity [3]: 50%; Activity (Rattus norvegicus): 56%

**Q.** For `COc1ccc([C@@H]2Sc3ccccc3N(CCN(C)C)C(=O)[C@@H]2OC(C)=O)cc1` [DILTIAZEM], which “fold change (FC)” value [4] is on record?
**A.** Its value is 2.

**Q.** What about the “fold change (FC)” value [5] of the same molecule?
**A.** Its value is 1.5.
